Earlier results as cited in article PMC6234229, “The role of loops B and C in determining the potentiation of GABAA receptors by midazolam” (Pharmacology Research & Perspectives, 2018).

Assays:
α3β1γ2 receptors = test system: α3β1γ2 receptors; design: method as in PMID 1646944, PMID 8381510; details: cited from earlier work
[1] = test system: α6‐containing GABAA receptors; details: cited from earlier work

| SMILES | potentiation of α3β1γ2 vs α1β1γ2 receptors (α3β1γ2 receptors) | potentiation of α6‐ vs α3‐containing GABAA receptors [1] |
| --- | --- | --- |
| CN1C(=O)CN=C(c2ccccc2)c2cc(Cl)ccc21 [diazepam] | potentiated α3β1γ2 receptors more than α1β1γ2 receptors |  |
| CC#CCOC(=O)c1c(C)nc2sc3c(c2c1N)CCC(O)C3 (stereo not drawn) [SB‐205384] |  | potentiate α6‐containing GABAA receptors even more strongly than α3 |
| CN1C(=O)CN=C(c2ccccc2F)c2cc([N+](=O)[O-])ccc21 [flunitrazepam] | potentiated α3β1γ2 receptors more than α1β1γ2 receptors |  |
